# Read-outs that look alike come from different tables or passages of the source.
# Assays:
# [1] = cited from earlier work
# [2] = aqueous
# beagle dogs = assay: Cardiovascular and respiratory effects following intravenous administration in anaesthetised beagle dogs; format: in vivo, beagle dog
# Protocol: The following parameters were recorded or derived and served as indicators of the functional status of the various elements within the cardiovascular and respiratory systems. The units of measurement are stated in parenthesis.
# Anaesthesia was induced by i.v. injection of sodium thiopentone and maintained i.v. by a mixture of α-chloralose and pentobarbitone sodium given as required. Body temperature was maintained.
# The trachea was cannulated and the canule connected to a pneumotach screen to allow measurement of tidal volume (ml) and the derived parameters of respiration rate (br/min) and minute volume (ml). Catheters were introduced into the right femoral artery and a cephalic vein to facilitate measurements of blood pressure and the administration of vehicle, test substances and anaesthetic respectively. The femoral artery was connected to a heparin/saline filled pressure transducer, coupled to a Grass 7E polygraph. […]
# Following a 30 minute stabilization period, the vehicle was administered i.v. at a dose volume of 7.0 ml/kG over a period of 15 minutes. […] The parameters were monitored for a least 45 minutes from the start of infusion. […]
# All parameters including high resolution (50 mm/sec) recordings of the ECG were measured at 5 minute intervals during the stabilization period and at 0.5, 1, 2 and 5 minutes intervals post-dose following vehicle and drug administration. […]
smiles,measurement,setting,value
CC(=O)O[C@H]1C(=O)[C@@]2(C)[C@H]([C@H](OC(=O)c3ccccc3)[C@]3(O)C[C@H](OC(=O)[C@H](O)[C@@H](NC(=O)c4ccccc4)c4ccccc4)C(C)=C1C3(C)C)[C@]1(OC(C)=O)CO[C@@H]1C[C@@H]2O [paclitaxel],aqueous solubility,[1]; ambient temperature,about 0.0005 mg/ml
same,aqueous solubility,[1]; room temperature,about 0.5 μg/ml
same,Dissolved Paclitaxel,[2]; 2% w/v acetyl-γ-cyclodextrin,4.0 µg/mL
same,Dissolved Paclitaxel,[2]; 5% w/v acetyl-γ-cyclodextrin,8.8 µg/mL
same,Dissolved Paclitaxel,[2]; 10% w/v acetyl-γ-cyclodextrin,25.0 µg/mL
same,Dissolved Paclitaxel,[2]; 20% w/v acetyl-γ-cyclodextrin,48.0 µg/mL
same,Dissolved Paclitaxel,[2]; 40% w/v acetyl-γ-cyclodextrin,170 µg/mL
same,Dissolved Paclitaxel,"[2]; 40% w/v acetyl-γ-cyclodextrin, listed as Paclitaxel",170.0 µg/mL
same,outcome of i.v. administration,"beagle dogs; 6 and 60 mg/m^2 in Cremophor ELP:ethanol 1:1, i.v., animals 1 and 2, administration discontinued",death of the animals
same,reaction to intravenous administration,"beagle dogs; dog, in vivo, iv",anaphylactic type reaction

# Reference: US7671042B2, “Pharmaceutical compositions containing cyclodextrins and taxoids” (priority 1997, dated 2010)
